Legend:
mIMCD-3 renal cells [1] = experiment: NPH-cytokine signature mRNA abundance (qRT-PCR) in confluent mIMCD-3 cells; type: cell-based, Mouse; conditions: n=3
Procedure: (§1) Mouse inner medullary collecting duct (mIMCD-3) cells were grown in DMEM/F-12 (1:1, GIBCO, 21331-020) supplemented with 10% FBS, 1% penicillin-streptomycin and 2 mM L-Glutamine (GIBCO, 25030-024). A total of 50,000 cells/cm^2 were seeded for 3 days on 12 well plate. Confluent mIMCD-3 cells were stimulated with 5 μM XMUMP-1 (Selleckchem, S8334), or 10 μM Lats-IN-1 (MedChemExpress, HY-138489) or 0.04% DMSO. For bacteria experiment, mIMCD-3 cells were starved overnight prior stimulation and then stimulated for 6 hours with 5 μM XMU-MP-1 or 0.04% DMSO with or without 1.108/mL UPEC.
(§2) Total RNAs were obtained from cells using RNeasy Mini Kit (Qiagen) and reverse transcribed using High Capacity cDNA Reverse Transcription Kit (Applied Biosystems) according to the manufacturer's protocol. Quantitative PCR were performed with iTaq™ Universal SYBR® Green Supermix (Bio-Rad) on a CFX384 C1000 Touch (Bio-Rad). Hprt, Sdha, Gapdh and Ppia were used as normalization controls. Each biological replicate was measured in technical duplicates.
Data are expressed as means+/−standard deviation. Differences between groups were evaluated using unpaired t test when only 2 groups were evaluated or one-way ANOVA followed, when significant (P<0.05), by the Tukey-Kramer test. The statistical analysis was performed using GraphPad Prism V8 software.

mIMCD-3 renal cells [2] = experiment: Inflammatory cytokine mRNA response to heat inactivated uropathogenic Escherichia coli (UPEC) in mIMCD-3 cells; type: cell-based, Mouse; conditions: confluent mIMCD-3 cells, 5 μM XMU-MP-1 and heat inactivated UPEC, 6 hours, n=7-10
Procedure: (§3) Uropathogen E. coli (UTI89 strain, UPEC) bacteria strains were grown as previously described (Zychlinsky Scharff et al., 2019). Inactivation of bacteria was performed on bacteria resuspended at a concentration of 109/ml in PBS and heated at 60° C. for one hour.
as §1, with “For bacteria experiment, mIMCD-3 cells were starved overnight prior stimulation and then stimulated for 6 hours with 5 μM XMU-MP-1 or 0.04% DMSO with or without 1.108/mL UPEC.” left out
as §2, with “Hprt, Sdha, Gapdh and Ppia were used as normalization controls.” left out
(§4) Data are expressed as means+/−standard deviation. Differences between groups were evaluated using unpaired t test when only 2 groups were evaluated or one-way ANOVA followed, when significant (P<0.05), by the Tukey-Kramer test. […]

MDCK renal cells [3] = experiment: NPH-cytokine signature mRNA abundance (qRT-PCR) in confluent MDCK cells; type: cell-based, Dog; conditions: 5 μM XMU-MP-1, 6 hours, n=3-6
Procedure: Madin-Darby canine kidney cells (MDCK, kind gift from Prof. Kai Simons, MPI-CBG, Dresden, Germany) were cultured using DMEM (GIBCO, 41966-029) supplemented with 10% FBS (GIBCO, 10270-106) and 1% penicillin-streptomycin (GIBCO, 15140-122). A total of 200,000 cells/cm^2 were seeded for 10 days on 12 well plate (Corning, 353043). Confluent MDCK cells were stimulated for 6 hours with 5 μM XMU-MP-1 (Selleckchem, S8334) or 0.04% DMSO. For bacteria experiment, MDCK cells were starved overnight prior stimulation and then stimulated for 6 hours with 5 μM XMU-MP-1 or 10 μM Lats-IN-1 (MedChemExpress, HY-138489) with or without 1.108/mL UPEC. All cells were regularly tested for mycoplasma contamination and were mycoplasma-free.
as §2, §4

MDCK renal cells [4] = experiment: Ccl2 and Cxcl10 mRNA response to UPEC in confluent MDCK cells; type: cell-based, Dog; conditions: 6 hours, n=5
Procedure: as §3
Madin-Darby canine kidney cells (MDCK, kind gift from Prof. Kai Simons, MPI-CBG, Dresden, Germany) were cultured using DMEM (GIBCO, 41966-029) supplemented with 10% FBS (GIBCO, 10270-106) and 1% penicillin-streptomycin (GIBCO, 15140-122). A total of 200,000 cells/cm^2 were seeded for 10 days on 12 well plate (Corning, 353043). Confluent MDCK cells were stimulated for 6 hours with 5 μM XMU-MP-1 (Selleckchem, S8334) or 0.04% DMSO. […]
as §2, with “Hprt, Sdha, Gapdh and Ppia were used as normalization controls.” left out
as §4

| Structure (SMILES) | NPH-cytokine signature (Ctgf, Cyr61, Ccl2, Ccl5, Cx3cl1, Cxcl1, Cxcl10, Cxcl16, Cxcl17, Il1rn, Il33, Il34, Lgals9 mRNA abundance) (mIMCD-3 renal cells [1]; 5 μM XMU-MP-1, 6 hours) | inflammatory response to uropathogenic bacteria (cytokine mRNA abundance) (mIMCD-3 renal cells [2]) | NPH-cytokine signature (Ctgf, Cyr61, Ccl2, Ccl5, Cx3cl1, Cxcl10, Cxcl16, Cxcl17, Il1rn, Il34 mRNA abundance) (MDCK renal cells [3]) | inflammatory response to bacteria (Ccl2 and Cxcl10 mRNA abundance) (MDCK renal cells [4]; 5 μM XMU-MP-1 and UPEC) | NPH-cytokine signature (Ctgf, Cyr61, Ccl2, Ccl5, Cx3cl1, Cxcl1, Cxcl10, Cxcl16, Cxcl17, Il1rn, Il33, Il34, Lgals9 mRNA abundance) (mIMCD-3 renal cells [1]; 10 μM Lats-IN-1, 6 hours) | inflammatory response to bacteria (Ccl2 and Cxcl10 mRNA abundance) (MDCK renal cells [4]; 10 μM Lats-IN-1 and UPEC) |
| --- | --- | --- | --- | --- | --- | --- |
| CN1C(=O)c2sccc2N(C)c2nc(Nc3ccc(S(N)(=O)=O)cc3)ncc21 [XMU-MP-1, 4-[(6, 10-Dihydro-5, 10-dimethyl-6-oxo-5H-pyrimido[5,4-b]thieno[3,2-e][1,4]diazepin-2-yl)amino]benzenesulfonamide] | suppresses NPH-cytokine signature | blunts inflammatory response to uropathogenic bacteria | reduces NPH-cytokine signature | reduces NPH-cytokine signature and inflammatory response to bacteria | – | – |
| O=C(N=c1sccn1Cc1ccccc1)c1c[nH]c2ncccc12 [Lats-IN-1, N-(3-benzylthiazol-2(3H)-ylidene)-1H-pyrrolo[2,3-b]pyridine-3-carboxamide] | – | – | – | – | suppresses partially NPH-cytokine signature | reduces NPH-cytokine signature and inflammatory response to bacteria |
